Data as given in EP4755885A1 (Shanghai Hansoh Biomedical Co., Ltd., priority 2023, dated 2025).
pEC50: −log10 of the molar value. Each block holds one compound with its values, some of them ahead of it.

Assays:
human GLP-1 receptor [1] = molecular target: T1, human GLP-1 receptor (Homo sapiens, UniProt P43220); assay: cAMP production in cell line stably transformed with human GLP1 receptor, 2 h co-incubation (HTRF); assay type: cell-based; settings: CHO-K1/GLP-1R/CRE-luc cells, stimulation for 2 h, read-out: EC50
T1 construct: expressed in transfected cells
Method: (§1) The purpose of this assay example is to test the ability of the compound to activate the human GLP-1 receptor on cell surface. The EC50 for stimulated cAMP production after activation characterizes the ability of the compound to activate the human GLP-1 receptor.
In this experiment, the compound and cells were co-incubated for 2 h.
(§2) Frozen cell line CHO-K1/GLP-1R/CRE-luc stably transformed with human GLP1 receptor was removed from a liquid nitrogen tank, and was placed in a 37°C water bath for rapid thawing. The cells were resuspended in DMEM/F12 medium, and after centrifugation, were washed once. The cells were resuspended in an experimental buffer, i.e., DMEM/F12 medium containing 0.1% casein. After centrifugation, cell density was adjusted using the experimental buffer. The cells were plated onto a 384-well plate at a density of 1500 cells/5 µL/well. Then, each well was added with 2.5 µL of IBMX working solution prepared with the buffer, the final concentration of IBMX being 0.5 mM, and 2.5 µL of a serially diluted compound sample (starting from […], 3-fold dilution, 12 concentrations). The plate was centrifuged at 1000 rpm for 1 min, and was stood for incubation at 37°C for 2 h. Determination was performed using the Cisbio cAMP - Gs Dynamic kit. cAMP-d2 and anti-cAMP-Eu3+-Cryptate were diluted 18-fold and 20-fold respectively with cAMP Lysis & Detection Buffer, and were respectively mixed homogeneously. Each well was added with 5 µL of diluted cAMP-d2 solution, and the plate was centrifuged at 1000 rpm for 1 min, and shaken for 30 seconds for homogeneous mixing. Then, each well was added with 5 µL of diluted anti-cAMP-Eu3+-Cryptate solution, and the plate was centrifuged at 1000 rpm for 1 min and was incubated in the dark at room temperature for 1 h. HTRF signals were read using the Biotek Synergy H1 microplate reader, the excitation wavelength being 320 nm and the emission wavelengths being 620 nm and 665 nm.
(§3) The signal-to-signal ratio was calculated (665 nm/620 nm * 10,000). Nonlinear fitting between the signal-to-signal ratio and the sample concentration was performed in GraphPad Prism 10 using a four-parameter equation to obtain the EC50 value.

human GLP-1 receptor [2] = molecular target: T1, human GLP-1 receptor; assay: cAMP production in cell line stably transformed with human GLP1 receptor, 30 min co-incubation (HTRF); assay type: cell-based; settings: CHO-K1/GLP-1R/CRE-luc cells, stimulation for 0.5 h, read-out: EC50
Method: as §1
In this experiment, the compound and cells were co-incubated for 30 min.
as §2, with “for 0.5” for “for 2”
as §3

[3] = Pharmacokinetic evaluation in beagles, oral administration; assay type: in vivo; settings: dog, po, p.o. 2 mg/kg, plasma; for Cmax: read-out: Cmax; for MRT inf: read-out: MRT 0-∞; for Tmax: read-out: tmax
Method: Beagles were used as test animals to study the pharmacokinetic behavior of the compound of the present invention, administered orally at a dose of 2 mg/kg, in beagles (plasma).
Beagles, 3 per group, male.
(§4) Preparation of drug for oral administration: 10%PEG400/10%PG/80% glycine buffer (100 mM glycine, 64 Mm NaOH, […]) buffer.
Single PK: The compound of the present invention was weighed into a 100 mL glass bottle, and the solution was added. The pH was first adjusted with 1 M NaOH until the compound dissolves to obtain a clear solution, and then the pH was readjusted to pH 9.0-9.5 with 1 M HCl. Sonication was performed for 10 min to obtain a colorless clear solution having a concentration of 0.4 mg/mL.
Three beagles, male, respectively administered p.o. after fasting overnight, at a dose of 2 mg/kg and in an administration volume of 5 mL/kg.
Blood collection: 0.3 mL of blood was collected from the forelimb vein of the beagles before administration and at 0.25, 0.5, 1, 2, 4, 6, 8, and 24 h after administration. The blood samples were placed in EDTA-K2 anticoagulant tubes and centrifuged at 6000 rpm at 4°C for 6 min to separate plasma, which was stored at -80°C. The beagles were fed 4 h after administration.
(§5) • 1) 40 µL of a plasma sample was added with 160 µL of acetonitrile for precipitation, and after mixing, the mixture was centrifuged at 3500 × g for 5 to 20 min. • 2) The supernatant solution after treatment was taken for LC/MS/MS analysis of the concentration of the test compound. The LC/MS/MS analysis instrument was AB Sciex API 4000 Qtrap.
• Liquid phase condition: Shimadzu LC-20AD pump • Chromatographic column: Agilent ZORBAX XDB-C18 (50×2.1 mm, 3.5 µm) Mobile phase: Solution A was 0.1% formic acid aqueous solution, and Solution B was acetonitrile • Flow rate: 0.4 mL/min • Elution time: 0-4.0 min, the eluent was as follows: […]

[4] = Pharmacokinetic evaluation in mice, oral administration; assay type: in vivo, Balb/c mice; settings: p.o. 5 mg/kg, plasma; for AUC(0-inf) / AUC(0-t) / Cmax / Tmax / MRT inf: mouse, in vivo, po; for MRT inf: read-out: MRT 0-∞
Method: Balb/c mice were used as test animals to study the pharmacokinetic behavior of the compound of the present invention in mice (plasma) at a dose of 5 mg/kg administered orally and 1 mg/kg administered intravenously.
Balb/c mice, 3 per group, male.
as §4
10 ml of PEG400, 10 ml of PG, and 80 ml of (100 mM glycine, 64 Mm NaOH, pH = 9) were measured into a 100 ml volumetric flask, vortexed, mixed homogeneously, and sonicated to obtain a clear solution.
Single PK: An example compound was weighed into a 4 mL glass bottle. The solution was added, and sonication was performed for 10 min to obtain a colorless clear solution having a concentration of 0.5 mg/mL.
The solution was added, and sonication was performed for 10 min to obtain a colorless clear solution having a concentration of 0.5 mg/mL.
Three Balb/c mice, male, respectively administered p.o. after fasting overnight, at a dose of 5 mg/kg and in an administration volume of 10 mL/kg.
The blood samples were placed in EDTA-K2 anticoagulant tubes and centrifuged at 6000 rpm at 4°C for 6 min to separate plasma, which was stored at -80°C. The mice were fed 4 h after administration.
as §5
• Liquid phase condition: Shimadzu LC-20AD pump • Chromatographic column: Agilent ZORBAX XDB-C18 (50×2.1 mm, 3.5 µm) Mobile phase: Solution A was 0.1% formic acid aqueous solution, and Solution B was acetonitrile • Flow rate: 0.4 mL/min • Elution time: 0-4.0 min, the eluent was as follows:
Main pharmacokinetic parameters were calculated using WinNonlin 6.1.

[5] = not marked single PK (cassette PK)

T1 sequence (P43220 24-463): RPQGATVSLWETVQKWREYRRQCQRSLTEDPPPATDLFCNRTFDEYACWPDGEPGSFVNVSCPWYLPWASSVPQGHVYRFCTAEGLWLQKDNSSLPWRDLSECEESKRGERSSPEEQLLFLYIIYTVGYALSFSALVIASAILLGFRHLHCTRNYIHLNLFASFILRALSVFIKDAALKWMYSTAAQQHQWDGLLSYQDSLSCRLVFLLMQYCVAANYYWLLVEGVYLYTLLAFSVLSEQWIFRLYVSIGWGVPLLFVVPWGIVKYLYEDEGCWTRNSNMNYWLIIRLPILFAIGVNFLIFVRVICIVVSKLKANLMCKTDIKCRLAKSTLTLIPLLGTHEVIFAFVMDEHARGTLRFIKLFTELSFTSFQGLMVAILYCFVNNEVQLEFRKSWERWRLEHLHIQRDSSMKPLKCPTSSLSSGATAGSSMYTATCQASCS

SMILES: [2H]C([2H])([2H])N1C(=O)C2(CC2)c2cc(-n3ccn(-c4c5c(nn4-c4cc(C)c(C#N)c(C)c4)CCN(C(=O)c4cc6cc([C@H]7CCOC(C)(C)C7)ccc6n4[C@@]4(c6noc(=O)[nH]6)C[C@@H]4C)[C@H]5C)c3=O)ccc21 [Example 162]
pEC50 (human GLP-1 receptor [1]): 10.00
pEC50 (human GLP-1 receptor [2]): 9.60

SMILES: [2H]C([2H])([2H])n1nc2c3c(c(-n4ccn(-c5c6c(nn5-c5cc(C)c(F)c(C)c5)CCN(C(=O)c5cc7cc([C@H]8CCOC(C)(C)C8)ccc7n5[C@@]5(c7noc(=O)[nH]7)C[C@@H]5C#C)[C@H]6C)c4=O)ccc31)OCCC2 [Example 287, 3-((1S,2R)-1-(5-((S)-2,2-dimethyltetrahydro-2H-pyran-4-yl)-2-((S)-2-(4-fluoro-3,5-dimethylphenyl)-4-methyl-3-(3-(2-(methyl-d3)-2,7,8,9-tetrahydrooxaheptano[4,3,2-cd]indazol-5-yl)-2-carbonyl-2,3-dihydro-1H-imidazol-1-yl)-4,5,6,7-tetrahydro-2H-pyrazolo[4,3-c]pyridine-5-carbonyl)-1H-indol-1-yl)-2-ethynylcyclopropyl)-1,2,4-oxadiazol-5(4H)-one]
AUC(0-inf) [3]: 17200 ng·h/mL
AUC(0-t) at 24 h [3]: 17000 ng·h/mL
half-life [3]: 3.7 h
Cmax [3]: 1880 ng/mL
MRT inf [3]: 6.1 h
Tmax [3]: 2.3 h
AUC(0-inf) ([4]; single PK): 28000 ng·h/mL
AUC(0-t) ([4]; single PK): 27900 ng·h/mL
Cmax ([4]; single PK): 5320 ng/mL
Tmax ([4]; single PK): 1 h
MRT inf ([4]; single PK): 4.2 h
tl/2 ([4]; single PK): 3.0 h
pEC50 (human GLP-1 receptor [2]): 9.05

SMILES: Cc1cc(-n2nc3c(c2-n2ccn(-c4cc5c6c(c4)OCC(=O)N6CCC5)c2=O)[C@H](C)N(C(=O)c2cc4cc([C@H]5CCOC(C)(C)C5)ccc4n2[C@@]2(c4noc(=O)[nH]4)C[C@@H]2C)CC3)cc(C)c1F [Example 41]
pEC50 (human GLP-1 receptor [2]): 9.05

AUC(0-inf) ([3]; male, beagle): 19400 ng·h/mL
half-life ([3]; male, beagle): 4.1 h
AUC(0-t) ([3]; male, beagle, read-out: AUC 0-t): 19200 ng·h/mL
Cmax ([3]; male, beagle): 3600 ng/mL
MRT inf ([3]; male, beagle): 5.3 h
Tmax ([3]; male, beagle): 1.5 h
pEC50 (human GLP-1 receptor [1]): 10.05
pEC50 (human GLP-1 receptor [2]): 9.15
SMILES: [2H]C([2H])([2H])n1nc2c3c(c(-n4ccn(-c5c6c(nn5-c5cc(C)c(F)c(C)c5)CCN(C(=O)c5cc7cc([C@H]8CCOC(C)(C)C8)ccc7n5[C@@]5(c7noc(=O)[nH]7)C[C@@H]5COC5CC5)[C@H]6C)c4=O)ccc31)OCCC2 [Example 285, 3-((1S,2S)-2-(cyclopropyloxymethyl)-1-(5-((S)-2,2-dimethyltetrahydro-2H-pyran-4-yl)-2-((S)-2-(4-fluoro-3,5-dimethylphenyl)-4-methyl-3-(3-(2-(methyl-d3)-2,7,8,9-tetrahydrooxahepta[4,3,2-cd]indazol-5-yl)-2-carbonyl-2,3-dibydro-1H-imidazol-1-yl)-4,5,6,7-tetrahydro-2H-pyrazolo[4,3-c]pyridine-5-carbonyl)-1H-indol-1-yl)cyclopropyl)-1,2,4-oxadiazol-5(4H)-one]

SMILES: [2H]C([2H])([2H])N1C(=O)C2CC2c2cc(-n3ccn(-c4c5c(nn4-c4cc(C)c(F)c(C)c4)CCN(C(=O)c4cc6cc([C@H]7CCOC(C)(C)C7)ccc6n4[C@@]4(c6noc(=O)[nH]6)C[C@@H]4C)[C@H]5C)c3=O)ccc21 (some centres unmarked) [Example 61]
pEC50 (human GLP-1 receptor [2]): 8.86

SMILES: Cc1cc(-n2nc3c(c2-n2ccn(-c4ccc(N=S(C)(C)=O)cc4F)c2=O)[C@H](C)N(C(=O)c2cc4cc([C@H]5CCOC(C)(C)C5)ccc4n2[C@@]2(c4noc(=O)[nH]4)C[C@@H]2C)CC3)cc(C)c1F [Example 1]
pEC50 (human GLP-1 receptor [2]): 9.43

pEC50 (human GLP-1 receptor [2]): 8.82
SMILES: Cc1cc(-n2nc3c(c2-n2ccn(-c4ccc5c(c4)CCc4nnnn4-5)c2=O)[C@H](C)N(C(=O)c2cc4cc([C@H]5CCOC(C)(C)C5)ccc4n2[C@@]2(c4noc(=O)[nH]4)C[C@@H]2C)CC3)cc(C)c1F [Example 342]

SMILES: Cc1cc(-n2nc3c(c2-n2ccn(-c4ccc(CC(=O)N(C)C)cc4F)c2=O)[C@H](C)N(C(=O)c2cc4cc([C@H]5CCOC(C)(C)C5)ccc4n2[C@@]2(c4noc(=O)[nH]4)C[C@@H]2C)CC3)cc(C)c1F [Example 7]
AUC(0-inf) [4, 5]: 10800 ng·h/mL
AUC(0-t) [4, 5]: 10300 ng·h/mL
Cmax [4, 5]: 2970 ng/mL
Tmax [4, 5]: 0.5 h
MRT inf [4, 5]: 2.8 h
tl/2 [4, 5]: 1.6 h
pEC50 (human GLP-1 receptor [2]): 9.52

SMILES: Cc1cc(-n2nc3c(c2-n2ccn(-c4ccc5c(c4F)CCc4nnc(C)n4-5)c2=O)[C@H](C)N(C(=O)c2cc4cc([C@H]5CCOC(C)(C)C5)ccc4n2[C@@]2(c4noc(=O)[nH]4)C[C@@H]2C)CC3)cc(C)c1F [Example 339]
pEC50 (human GLP-1 receptor [2]): 9.29
